Measured values taken from ChEMBL document CHEMBL1201862, “PubChem BioAssay data set” (2004).
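Results reflect a 48-hour exposure of cells in 96-well plates to compound at five concentrations. GI50: concentration for 50% inhibition of growth.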 Activity calls are given as the source filed them. No stated cut-off is given here; in the data, active = GI50 up to about 1.1 µM and inactive = higher.

Experiments:
Assay in all cases: inhibition of tumour cell growth, NCI panel, 48 h
OVCAR-5 = system: OVCAR-5
SK-MEL-28 = system: SK-MEL-28
CAKI-1 = system: CAKI-1
NCI-H460 = system: NCI-H460
T47D = system: T47D
CCRF-CEM = system: CCRF-CEM
U-251 = system: U-251
RXF 393 = system: RXF 393
M14 = system: M14
K562 = system: K562
HCC 2998 = system: HCC 2998
UACC-62 = system: UACC-62
UO-31 = system: UO-31
NCI-H23 = system: NCI-H23
HCT-15 = system: HCT-15
LOX IMVI = system: LOX IMVI
HOP-92 = system: HOP-92
BT-549 = system: BT-549
MDA-N = system: MDA-N
SN12C = system: SN12C
Malme-3M = system: Malme-3M
SK-MEL-5 = system: SK-MEL-5
MDA-MB-231 = system: MDA-MB-231
A498 = system: A498
HL-60 = system: HL-60
UACC-257 = system: UACC-257
SF-295 = system: SF-295
NCI/ADR-RES = system: NCI/ADR-RES
HT-29 = system: HT-29
MCF7 = system: MCF7
SK-MEL-2 = system: SK-MEL-2
OVCAR-3 = system: OVCAR-3
PC-3 = system: PC-3
RPMI-8226 = system: RPMI-8226
EKVX = system: EKVX
DU-145 = system: DU-145
IGROV-1 = system: IGROV-1
TK-10 = system: TK-10
OVCAR-4 = system: OVCAR-4
SF-539 = system: SF-539
SK-OV-3 = system: SK-OV-3
MDA-MB-435 = system: MDA-MB-435
MOLT-4 = system: MOLT-4
A549 = system: A549
HCT-116 = system: HCT-116
SW-620 = system: SW-620
ACHN = system: ACHN
SF-268 = system: SF-268
OVCAR-8 = system: OVCAR-8
COLO 205 = system: COLO 205
Hs-578T = system: Hs-578T
NCI-H522 = system: NCI-H522
SNB-75 = system: SNB-75
KM12 = system: KM12
SNB-19 = system: SNB-19
NCI-H226 = system: NCI-H226
786-0 = system: 786-0
HOP-62 = system: HOP-62

For `CC(=O)NC(c1nc2cc(C)c(C)cc2[nH]1)c1nc2cc(C)c(C)cc2[nH]1`, the GI50 (OVCAR-5) was 41.7 µM (inactive), the GI50 (SK-MEL-28) was 17.7 µM (inactive) and the GI50 (CAKI-1) was 20.3 µM (inactive). The GI50 (NCI-H460) was 11.7 µM (inactive), the GI50 (T47D) was 43 µM (inactive) and the GI50 (CCRF-CEM) was 7.05 µM (inactive). The GI50 (U-251) was 20.9 µM (inactive), the GI50 (RXF 393) was 26.3 µM (inactive) and the GI50 (M14) was 25.4 µM (inactive). For the same molecule, the GI50 (K562) was 1.02 µM (active), the GI50 (HCC 2998) was 16.9 µM (inactive) and the GI50 (UACC-62) was 32.7 µM (inactive). The GI50 (UO-31) was 25.4 µM (inactive), the GI50 (NCI-H23) was 32.2 µM (inactive) and the GI50 (HCT-15) was 21.2 µM. The GI50 (LOX IMVI) was 19 µM (inactive), the GI50 (HOP-92) was 19.8 µM (inactive) and the GI50 (BT-549) was 23.2 µM (inactive). For the same molecule, the GI50 (MDA-N) was 19.1 µM (inactive), the GI50 (SN12C) was 15.9 µM (inactive) and the GI50 (Malme-3M) was 29 µM (inactive). The GI50 (SK-MEL-5) was 15.2 µM (inactive), the GI50 (MDA-MB-231) was 26.1 µM (inactive) and the GI50 (A498) was 17.9 µM (inactive). For the same molecule, the GI50 (HL-60) was 28.2 µM (inactive), the GI50 (UACC-257) was 21.3 µM (inactive) and the GI50 (SF-295) was 22.4 µM (inactive). The GI50 (NCI/ADR-RES) was 28.9 µM (inactive), the GI50 (HT-29) was 15.2 µM (inactive) and the GI50 (MCF7) was 23.9 µM (inactive). The GI50 (SK-MEL-2) was 36.8 µM (inactive), the GI50 (OVCAR-3) was 13.9 µM (inactive) and the GI50 (PC-3) was 24.8 µM (inactive). For the same molecule, the GI50 (RPMI-8226) was 4.57 µM (inactive), the GI50 (EKVX) was 24.3 µM (inactive) and the GI50 (DU-145) was 20.2 µM (inactive). The GI50 (IGROV-1) was 11.7 µM (inactive), the GI50 (TK-10) was 28.1 µM (inactive) and the GI50 (OVCAR-4) was 21.9 µM (inactive). The GI50 (SF-539) was 14.1 µM (inactive), the GI50 (SK-OV-3) was 17.7 µM (inactive) and the GI50 (MDA-MB-435) was 17.7 µM (inactive). The GI50 (MOLT-4) was 2.86 µM (inactive), the GI50 (A549) was 21.3 µM (inactive) and the GI50 (HCT-116) was 19.1 µM (inactive). The GI50 (SW-620) was 22.3 µM (inactive), the GI50 (ACHN) was 29.2 µM (inactive) and the GI50 (SF-268) was 23.2 µM (inactive). For the same molecule, the GI50 (OVCAR-8) was 20 µM (inactive), the GI50 (COLO 205) was 18 µM (inactive) and the GI50 (Hs-578T) was 36.8 µM (inactive). The GI50 (NCI-H522) was 5.12 µM (inactive), the GI50 (SNB-75) was 22.1 µM (inactive) and the GI50 (KM12) was 16 µM (inactive). The GI50 (SNB-19) was 41.5 µM (inactive).
`CCCCC1C=Cn2c(=O)oc3c(OC(C)C)c(OC(C)C)c(O)c1c32` (centres undefined) was tested, and the GI50 (OVCAR-5) was 17.2 µM (inactive), the GI50 (SK-MEL-28) was 13.6 µM (inactive) and the GI50 (CAKI-1) was 15.1 µM (inactive). For the same molecule, the GI50 (NCI-H460) was 15.4 µM (inactive), the GI50 (T47D) was 4.44 µM (inactive) and the GI50 (NCI-H226) was 14 µM (inactive). The GI50 (CCRF-CEM) was 8.49 µM (inactive), the GI50 (U-251) was 16 µM (inactive) and the GI50 (M14) was 22.3 µM (inactive). For the same molecule, the GI50 (786-0) was 20 µM (inactive), the GI50 (UACC-62) was 13.4 µM (inactive) and the GI50 (UO-31) was 13.6 µM (inactive). For the same molecule, the GI50 (NCI-H23) was 12.2 µM (inactive), the GI50 (HCT-15) was 14.6 µM and the GI50 (LOX IMVI) was 14.3 µM (inactive). The GI50 (HOP-92) was 14.3 µM (inactive), the GI50 (BT-549) was 14.3 µM (inactive) and the GI50 (MDA-N) was 20.9 µM (inactive). For the same molecule, the GI50 (SN12C) was 20.5 µM (inactive), the GI50 (SK-MEL-5) was 14.7 µM (inactive) and the GI50 (MDA-MB-231) was 14.1 µM (inactive). For the same molecule, the GI50 (A498) was 17.1 µM (inactive), the GI50 (HL-60) was 4.56 µM (inactive) and the GI50 (UACC-257) was 15.6 µM (inactive). For the same molecule, the GI50 (SF-295) was 18.5 µM (inactive), the GI50 (HT-29) was 14.6 µM (inactive) and the GI50 (MCF7) was 12.2 µM (inactive). The GI50 (SK-MEL-2) was 15.3 µM (inactive), the GI50 (OVCAR-3) was 16.4 µM (inactive) and the GI50 (PC-3) was 38.2 µM (inactive). The GI50 (EKVX) was 29.9 µM (inactive), the GI50 (DU-145) was 14.8 µM (inactive) and the GI50 (TK-10) was 16.3 µM (inactive). The GI50 (OVCAR-4) was 21.5 µM (inactive), the GI50 (SF-539) was 23.6 µM (inactive) and the GI50 (SK-OV-3) was 25.2 µM (inactive). The GI50 (MDA-MB-435) was 12.5 µM (inactive), the GI50 (MOLT-4) was 6.1 µM (inactive) and the GI50 (A549) was 17.2 µM (inactive). The GI50 (HCT-116) was 17.4 µM (inactive), the GI50 (SW-620) was 13.9 µM (inactive) and the GI50 (ACHN) was 36.6 µM (inactive). For the same molecule, the GI50 (SF-268) was 18.5 µM (inactive), the GI50 (HOP-62) was 20.7 µM (inactive) and the GI50 (OVCAR-8) was 14.9 µM (inactive). For the same molecule, the GI50 (COLO 205) was 16.3 µM (inactive), the GI50 (Hs-578T) was 18.3 µM (inactive) and the GI50 (NCI-H522) was 11.6 µM (inactive). For the same molecule, the GI50 (SNB-75) was 13 µM (inactive), the GI50 (KM12) was 14.4 µM (inactive) and the GI50 (SNB-19) was 18.2 µM (inactive).
In the case of `c1ccc2c(c1)Cn1c-2nc2ccccc21`, the GI50 (OVCAR-5) is reported as > 100 µM (inactive), the GI50 (SK-MEL-28) is reported as > 100 µM (inactive) and the GI50 (CAKI-1) is reported as > 100 µM (inactive). For the same molecule, the GI50 (NCI-H460) was 97.3 µM (inactive), the GI50 (T47D) was > 100 µM (inactive) and the GI50 (NCI-H226) was 61.7 µM (inactive). The GI50 (CCRF-CEM) was > 100 µM (inactive), the GI50 (U-251) was > 100 µM (inactive) and the GI50 (RXF 393) was 82 µM (inactive). For the same molecule, the GI50 (M14) was > 100 µM (inactive), the GI50 (K562) was > 100 µM (inactive) and the GI50 (786-0) was > 100 µM (inactive). The GI50 (HCC 2998) was > 100 µM (inactive), the GI50 (UACC-62) was > 100 µM (inactive) and the GI50 (UO-31) was 4.83 µM (inactive). The GI50 (NCI-H23) was > 100 µM (inactive), the GI50 (HCT-15) was 94.4 µM and the GI50 (LOX IMVI) was > 100 µM (inactive). The GI50 (HOP-92) was > 100 µM (inactive), the GI50 (BT-549) was > 100 µM (inactive) and the GI50 (MDA-N) was > 100 µM (inactive). The GI50 (SN12C) was > 100 µM (inactive), the GI50 (Malme-3M) was 76 µM (inactive) and the GI50 (SK-MEL-5) was 42.4 µM (inactive). The GI50 (MDA-MB-231) was > 100 µM (inactive), the GI50 (A498) was > 100 µM (inactive) and the GI50 (HL-60) was > 100 µM (inactive). For the same molecule, the GI50 (UACC-257) was > 100 µM (inactive), the GI50 (SF-295) was > 100 µM (inactive) and the GI50 (NCI/ADR-RES) was > 100 µM (inactive). For the same molecule, the GI50 (HT-29) was > 100 µM (inactive), the GI50 (MCF7) was > 100 µM (inactive) and the GI50 (SK-MEL-2) was > 100 µM (inactive). The GI50 (OVCAR-3) was > 100 µM (inactive), the GI50 (PC-3) was > 100 µM (inactive) and the GI50 (RPMI-8226) was 65 µM (inactive). The GI50 (EKVX) was > 100 µM (inactive), the GI50 (DU-145) was 23.9 µM (inactive) and the GI50 (IGROV-1) was > 100 µM (inactive). For the same molecule, the GI50 (TK-10) was > 100 µM (inactive), the GI50 (OVCAR-4) was > 100 µM (inactive) and the GI50 (SF-539) was > 100 µM (inactive). For the same molecule, the GI50 (SK-OV-3) was > 100 µM (inactive), the GI50 (MDA-MB-435) was > 100 µM (inactive) and the GI50 (MOLT-4) was 31.1 µM (inactive). For the same molecule, the GI50 (A549) was 67.6 µM (inactive), the GI50 (HCT-116) was > 100 µM (inactive) and the GI50 (SW-620) was > 100 µM (inactive). For the same molecule, the GI50 (ACHN) was 96.6 µM (inactive), the GI50 (SF-268) was > 100 µM (inactive) and the GI50 (HOP-62) was > 100 µM (inactive). The GI50 (OVCAR-8) was > 100 µM (inactive), the GI50 (COLO 205) was 98.4 µM (inactive) and the GI50 (Hs-578T) was > 100 µM (inactive). For the same molecule, the GI50 (NCI-H522) was 43.1 µM (inactive), the GI50 (SNB-75) was < 0.01 µM (active) and the GI50 (KM12) was > 100 µM (inactive). For the same molecule, the GI50 (SNB-19) was > 100 µM (inactive).
